Measurements taken from patent US20120270928A1, “MICRORNA COMPOUNDS AND METHODS FOR MODULATING MIR-21 ACTIVITY” (REGULUS THERAPEUTICS INC., priority 2011, published 2012).
Values joined by “and” are separate entries in the source; they are usually repeats but may differ in a detail not shown here. Identical values can stand only once.

Tests used:
[1] = In vivo stability of compound in kidney tissue after administration to mice; conditions: kidney tissue after administration; for in vivo (kidney) N − 1 (%): compound lacking the 3′-terminal nucleoside; for in vivo (kidney) N (%): full-length compound
[2] = Ex vivo liver homogenate stability assay (HPLC-TOF MS); conditions: 24 hours at 37° C.; for ex vivo (liver) N %↓: full-length compound; for ex vivo (liver) % Endo / ex vivo (liver) % N − 1: 5 μM oligonucleotide in liver homogenate; for ex vivo (liver) % N − 1: compound lacking the 3′-terminal nucleoside
miR-21 = miR-21 luciferase sensor assay in Hela cells; type: cell-based; conditions: Hela cells
Method: The compounds were assessed for miR-21 inhibitory activity in a luciferase assay. A microRNA luciferase sensor construct was engineered using pGL3-MCS2 (Promega). The construct was introduced into Hela cells to test the ability of anti-miR compounds to inhibit activity of miR-21. In this assay, miR-21 present in the Hela cells binds to its cognate site(s) in the luciferase sensor construct, and suppresses luciferase expression. When the appropriate anti-miR is introduced into the cells, it binds to miR-21 and relieves suppression of luciferase expression. Thus, in this assay anti-miRs that are effective inhibitors of miR-21 expression will cause an increase in luciferase expression.
Hela cells (ATCC), stably transfected with a luciferase construct engineered to contain a sequence complementary of miR-21, were seeded in T-170 flasks (BD Falcon) at 3.5*10^6 cells/flask. Hela cells were grown in Dulbecco's Modified Eagle Medium with High Glucose (Invitrogen).
Each flask of Hela cells was transfected with 0.5 ug of a phRL sensor plasmid (Promega) expressing Renilla to be used in normalization. Hela cells were transfected using 20 ul Lipofectamine 2000/flask (Invitrogen). After 4 hours of transfection, cells were washed with PBS and trypsinized Hela cells were plated at 40 k/well in 24 well plates (BD Falcon) and left overnight.
Hela cells were transfected with anti-miRs using Lipofectin (Invitrogen) at 2.5 ul Lipofectin/100 nM ASO/ml Opti-MEM I Reduced Serum Medium (Invitrogen) for 4 hours. After ASO transfection, Hela cells were refed with Dulbecco's Modified Eagle Medium with High Glucose (Invitrogen).
Hela cells are passively lysed and luciferase activity measured using the Dual-Luciferase Reporter Assay System (Promega).
The luciferase assay was performed to test the ability of anti-miRs with the nucleoside patterns described herein to inhibit the activity of miR-21. Results were compared to a ‘mock’ treatment, in which cells received no anti-miR treatment. The experiment was repeated and results of two experimental replicates are shown in the following Table B, as the luciferase value normalized to beta-galactosidase activity.
The luciferase assay was performed as described herein to test the ability of anti-miRs in Table F to inhibit the activity of miR-21. Results were compared to a ‘mock’ treatment, in which cells received no anti-miR treatment. The experiment was repeated and results of two experimental replicates are shown in the following Table D, as fold change in luciferase value relative to the mock treatment.

[3] = system: UUO model of kidney fibrosis; assay: Unilateral ureteral obstruction (UUO) model of kidney fibrosis: kidney collagen 1A1 and collagen 3A1 expression by real-time PCR; type: in vivo, mice; conditions: for Collagen 3A1 (Normalized Expression) Mean / Collagen 1A1 (Normalized Expression) Mean / Collagen 1A1 (Normalized Expression) / Collagen 3A1 (Normalized Expression): Table K, UUO mice, kidney at day 11; for Collagen 3A1 (Normalized Expression) Mean / Collagen 1A1 (Normalized Expression) Mean: group mean; for Collagen 3A1 (Normalized Expression) Mean / Collagen 1A1 (Normalized Expression) Mean / reduction in collagen expression (in words): 20 mg/kg at days -3, -1, +5; for Collagen 3A1 (Normalized Expression) Mean: UUO-PBS mean 87.2; for Collagen 1A1 (Normalized Expression) Mean: UUO-PBS mean 114.9; for Collagen 1A1 (Normalized Expression) / Collagen 3A1 (Normalized Expression): individual animals, 20 mg/kg at days -3, -1, +5 (prophylactic), real-time PCR normalized to GAPDH then sham, 20 mg/kg; for reduction in collagen expression (in words): meta-analysis of UUO studies
Method: Unilateral ureteral obstruction (UUO) is a well-established experimental model of renal injury leading to interstitial fibrosis, and thus is used as an experimental model that is reflective of human kidney disease. UUO is induced by surgically ligating a single ureter. As fibrosis is characterized by an increase in collagen, the presence and extent of kidney fibrosis may be determined by measuring collagen content. Both collagen 1A1 (Col 1A1) and collagen 3A1 (Col 3A1) are measured to assess collagen content. Kidney fibrosis may be visualized by staining tissue samples with picro-sirius red to detect increases in collagen content. Kidney fibrosis may also be observed by measuring the amount of hydroxyproline, which is a major component of collagen, in a sample.
The cEt-containing anti-miR-21 compounds found to be active in the luciferase assay were tested in the UUO model of kidney fibrosis. 25919 comprising 2′-MOE and 2′-fluoro modifications is known to inhibit miR-21 activity in vivo and was included as a positive control. Groups of 8 animals each were treated as follows: UUO only, UUO with PBS, or UUO with anti-miR-21 compound. Relative to the day of the UUO procedure, PBS or anti-miR-21 compound was administered at days −3, −1, and +5. Anti-miR-21 compounds were administered at a dose of 20 mg/kg. As the anti-miR compounds were administered prior to the UUO procedure, this dosing regimen is considered a prophylactic treatment. At day 11, animals were sacrificed and kidney was isolated for measurement of collagen expression. Collagen expression was measured by real-time PCR and normalized first to GAPDH and then to the sham control animals.
The UUO study was repeated to confirm the activity of 25070. The anti-miR was administered subcutaneously at a dose of 20 mg/kg.
Control treatment groups included UUO only (sham) and UUO with PBS administered subcutaneously. An additional control group included UUO with Tween-MC/20 carrier perorally. 25070 administered subcutaneously at dose of 20 mg/kg at 5 days prior to, 2 days prior to, and 3 days after, the UUO procedure. Irbesartan was administered perorally on daily on days 0 through 7 following the UUO procedure. Animals were sacrificed on Day 10 following the UUO procedure. Kidney tissue was collected for measurement of collagen 1A1 and collagen 3A1 expression.
Compounds 25220 and 25221, as well as 25923, were tested in the UUO model for their effects on fibrosis. Groups of 8 animals each were treated as follows: sham surgery, UUO with PBS, UUO with 25220, UUO with 25221, or UUO with 25923. Relative to the day of the UUO procedure, PBS or anti-miR-21 compound was administered at days −5, −3, and +3. Anti-miR-21 compounds were administered at a dose of 20 mg/kg. As the anti-miR compounds were administered prior to the UUO procedure, this dosing regimen is considered a prophylactic treatment. At day 10, animals were sacrificed and kidney was isolated for measurement of collagen expression. Collagen expression was measured by real-time PCR and normalized to GAPDH.

[4] = 5 μM oligonucleotide in liver homogenate (50 mg tissue per ml)
[5] = 500 nM oligonucleotide, two experimental replicates

Substance	in vivo (kidney) N − 1 (%) [1] [%]	in vivo (kidney) N (%) [1] [%]	ex vivo (liver) N %↓ [2, 4] [%]	ex vivo (liver) % Endo [2]	ex vivo (liver) % N − 1 [2] [%]	luciferase value normalized to beta-galactosidase activity (miR-21; 4 nM oligonucleotide)	luciferase value normalized to beta-galactosidase activity (miR-21; 20 nM oligonucleotide)	luciferase value normalized to beta-galactosidase activity (miR-21; 100 nM oligonucleotide)	luciferase value normalized to beta-galactosidase activity (miR-21; [5])	luciferase value normalized to beta-galactosidase activity (miR-21; .16 nM oligonucleotide)	luciferase value normalized to beta-galactosidase activity (miR-21; .8 nM oligonucleotide)	inhibition of miR-21 activity in the luciferase assay (in words) (miR-21)	Collagen 3A1 (Normalized Expression) Mean [3]	Collagen 1A1 (Normalized Expression) Mean [3]	Collagen 1A1 (Normalized Expression) [3]	Collagen 3A1 (Normalized Expression) [3]	reduction in collagen expression (in words) [3]	compound lacking the 3′-terminal nucleoside [2, 4]	compound present as the full-length compound [2, 4]
AECSATCSAGTCSTGAUSAAGCSUsAS (ACATCAGTCTGATAAGCTA; sugar and backbone modifications) [Compound 25221]	4 ± 1	76 ± 4	3	3%	0														
TE^MeCAACSATCSAGTCSTGAUSAAGCSTAE (TCAACATCAGTCTGATAAGCTA; modified nucleosides with 5-methyl C, code letters not given here, further chemistry not given here) [Compound 25082]						112	147	176	202	70	89	inhibition of miR-21 in a dose-dependent manner	59.1	91.7	122.2 and 188.3 and 102.5 and 67.6 and 40.6 and 44.1 and 73.8 and 94.7	62.9 and 78.9 and 82.2 and 43.8 and 32.6 and 34.3 and 75.8 and 62.5	did not consistently demonstrate a reduction in collagen expression		
AECSAETECSAEGETECSTEGEAEUSAEAEGECSTEAE (ACATCAGTCTGATAAGCTA; anti-miR; sugar and backbone modifications, code letters not given here, further chemistry not given here) [Compound 25072]						76	86	115	143	40	49	inhibition of miR-21 in a dose-dependent manner	65.5	113.8	96.2 and 85.7 and 127.4 and 100.0 and 159.2 and 120.5 and 108.0	69.4 and 54.5 and 58.8 and 69.2 and 93.8 and 65.8 and 46.9	did not consistently demonstrate a reduction in collagen expression		
AECSATCSAGTCSTGAUSAAGCSTAS (antisense ACATCAGTCTGATAAGCTA; cEt and 2'-MOE nucleosides) [Compound 25923]	14 ± 5	58 ± 3	17	2-3%	13													about 18%	About 68%
TE^MeCEAEAECSAETECSAEGETECSTEGEAEUSAEAEGECSTEAE (TCAACATCAGTCTGATAAGCTA; modified nucleosides and phosphorothioate, code letters not given here, further chemistry not given here) [Compound 25068]						64	86	97	122	45	54	inhibition of miR-21 in a dose-dependent manner	60.6	96.4	84.7 and 75.1 and 85.5 and 89.1 and 90.4 and 125.8 and 124.4	64.8 and 56.2 and 47.4 and 76.2 and 57.0 and 63.0 and 59.6	active in reducing collagen expression, but to a lesser extent than 25070		
